# Source: patent publication US20260274799A1, “HETEROCYCLIC DERIVATIVES, COMPOSITIONS AND USES THEREOF” (DANATLAS PHARMACEUTICALS CO., LTD., priority 2023, published 2026)
# Target: T1, PPARγ-LBD (UniProt ID: P37231-2) (Homo sapiens, UniProt P37231)
# T1 construct: PPARγ-LBD (UniProt ID: P37231-2) was expressed and purified in insect system; made in house
# T1 sequence (P37231 238-503 limits assumed): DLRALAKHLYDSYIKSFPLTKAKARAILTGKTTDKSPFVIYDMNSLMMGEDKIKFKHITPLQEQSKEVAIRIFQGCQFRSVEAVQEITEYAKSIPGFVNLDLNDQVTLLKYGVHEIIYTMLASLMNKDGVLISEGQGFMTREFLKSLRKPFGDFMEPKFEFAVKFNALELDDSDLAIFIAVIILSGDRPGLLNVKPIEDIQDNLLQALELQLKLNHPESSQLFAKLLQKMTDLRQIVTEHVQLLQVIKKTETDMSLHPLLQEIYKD
# Test: PPARγ-SMRT recruitment assay (TR-FRET)
# Assay type: biochemical
# Details: for EC50: TR-FRET, SMRT peptide recruitment to PPARγ-LBD, 120 min pre-incubation
# Protocol: PPARγ TR-FRET assay was initiated to evaluate potential activatory effect of the compounds of the present disclosure for SMRT recruitment to PPARγ protein. PPARγ-LBD (UniProt ID: P37231-2) was expressed and purified in insect system and stored at −80° C. in aliquots. Biotinylated SMRT peptide was synthesized (Biotin-[…]). 5 μL protein solution mixture consisting of 10 nM PPARγ-LBD and 2 nM Anti-His Eu (Cisbio, 61HISKLA) in assay buffer (25 mM HEPES pH7.4, 25 mM KCl, 1 mM EDTA, 0.01% BSA, 0.01% Tween-20, 1 mM TCEP) was added to 384-well plates containing duplicate 10-point dose response titration of compounds in 5 μL assay buffer (1% f.c. DMSO(v/v)). After 120 min pre-incubation at room temperature, 5 μL peptide solution mixture consisting of 50 nM Biotin-SMRT peptide and 25 nM Streptavidin-XL665 (Cisbio, 610SAXLA) added to plates. Plates were incubated for 60 min. and read in CLARIOstar Plus plate reader with Ex/Em 620 nm/[…]. Average TR-FRET ratio of high control (Wells with 10 uM control compound) was calculated as High Control (HC). Average TR-FRET ratio of low control (Wells with 1% DMSO) was calculated as Low control (LC). For one compound, top % is the max value of % Activation.
# EC50 values were determined by fitting the data to the standard 4 parameters with Hill Slope using GraphPad Prism software. […] ND: No Determine.
"Emax (1 h, max value of % Activation, high control 10 uM control compound, low control 1% DMSO, read-out: Top %) [%]",EC50 [nM],Compound
650,< 100,"CS(=O)(=O)c1ccc(C#N)cc1-c1cc(=O)c2c(F)c(/C=C/c3ccccc3)c(F)cc2[nH]1 [Example 53, (E)-3-(5,7-Difluoro-4-oxo-6-styryl-1,4-dihydroquinolin-2-yl)-4-(methylsulfonyl)benzonitrile]"
,> 1000,"Cn1nnnc1Sc1ccc(C#N)cc1-c1cc(=O)c2c(F)cc(F)cc2[nH]1 [Example 54, 3-(5,7-Difluoro-4-oxo-1,4-dihydroquinolin-2-yl)-4-((1-methyl-1H-tetrazol-5-yl)thio)benzonitrile]"
,> 1000,"COc1cc(-c2cc(C#N)ccc2S(C)(=O)=O)nc2cc(F)c(C#CC(C)(C)F)c(F)c12 [Example 55, 3-(5,7-Difluoro-6-(3-fluoro-3-methylbut-1-yn-1-yl)-4-methoxyquinolin-2-yl)-4-(methylsulfonyl)benzonitrile]"
,100 to 1000,"Cc1ccc(S(C)(=O)=O)c(-c2cc(=O)c3c(F)c(CCC4CCOCC4)c(F)cc3[nH]2)c1 [Example 56, 5,7-Difluoro-2-(5-methyl-2-(methylsulfonyl)phenyl)-6-(2-(tetrahydro-2H-pyran-4-yl)ethyl)quinolin-4(1H)-one]"
